{
  "source": "patent US20170326249A1",
  "about": "“ANTIBODY-DRUG CONJUGATE OF AN ANTI-GLYPICAN-3 ANTIBODY AND A TUBULYSIN ANALOG, PREPARATION AND USES” (Bristol-Myers Squibb Company, priority 2016, published 2017)",
  "type_in_all_cases": "cell-based",
  "key": {"[1]": {"system": "Hep3B hepatocellular carcinoma cells", "assay": "3H thymidine incorporation proliferation assay, Hep3B", "settings": "Homo sapiens, 72 h", "experimental": "(§1) The human tumor cell lines were obtained from the American Type Culture Collection (ATCC), P.O. Box 1549, Manassas, Va. 20108, USA, and cultured according to instructions from ATCC. Cells were seeded at 1.0×10^4 cells/well in 96-well plates. […] Plates were allowed to incubate for 72 h. The plates were pulsed with 1.0 μCi of ^3H-thymidine per well for the last 24 hours of the total incubation period, harvested, and read on a Top Count Scintillation Counter (Packard Instruments, Meriden, Conn.). The EC50 values—the ADC concentration at which cell proliferation was reduced by 50%—were determined using PRISM™ software, version 4.0 (GraphPad Software, La Jolla, Calif., USA)."}, "[2]": {"system": "HepG2 hepatocellular carcinoma cell line", "assay": "3H thymidine incorporation proliferation assay, HepG2", "settings": "Homo sapiens; HepG2, Table 1", "experimental": "as §1\n(§2) The EC50 so values, along with those against HepG2 and HuH7D12 hepatocellular carcinoma cell lines, are shown in Table 1, plus data for the drug alone (formula (II)). […] That is, release of the drug from the conjugate is efficient."}, "[3]": {"system": "HuH7D12 hepatocellular carcinoma cell line", "assay": "3H thymidine incorporation proliferation assay, HuH7D12", "settings": "Homo sapiens, Huh-7D12; HuH7D12, Table 1", "experimental": "as §1, §2"}, "[4]": {"system": "H446 small-cell lung cancer cells", "assay": "3H thymidine incorporation proliferation assay, H446", "settings": "Homo sapiens, NCI-H446, 72 h", "experimental": "as §1"}},
  "data": [
    {"smiles": "CCCN(C(=O)[C@@H](NC(=O)[C@H]1CCCCN1C)[C@@H](C)CC)[C@H](C[C@@H](OC(C)=O)c1nc(C(=O)N[C@@H](Cc2ccc(N)cc2)C[C@H](C)C(=O)O)cs1)C(C)C", "note": "[Unconjugated Drug (II)]", "values": [
      {"measurement": "EC50", "setting": "[1]", "value": 0.2, "unit": "nM"},
      {"measurement": "EC50", "setting": "[2]", "value": 0.3, "unit": "nM"},
      {"measurement": "EC50", "setting": "[3]", "value": 0.2, "unit": "nM"},
      {"measurement": "EC50", "setting": "[4]", "value": 0.2, "unit": "nM"}
    ]}
  ]
}
